Here are results for 1 molecule from publication PMC12268683, “A global perspective on autoinducer-2-mediated cell communication in prokaryotes” (iScience, 2025).

Experiment [1] has as its target T1, LsrB receptor of S. coelicolor A3(2) (second of two, locus not given).
T1 construct: His6-tagged, pET-28a, E. coli BL21(DE3) or its luxS mutant, Ni-NTA
The experiment in a line: isothermal titration calorimetry. The format is binding, Streptomyces coelicolor. To be noted: 25 °C, 50 mM Tris, 150 mM NaCl, 10% glycerol, pH 8.0; one-site model; no borate added; which of the two LsrB not given. An excerpt:
isothermal titration calorimetry on LsrB receptor of S. coelicolor A3(2) (second of two, locus not printed) | the LsrB receptors bound AI-2 with high affinity
In general terms: Isothermal titration calorimetry measures the heat released or taken up as one component is titrated into another.

The target of experiment [2] is T2, LsrB receptor of S. coelicolor A3(2) (first of two, locus not given).
T2 construct: His6-tagged, pET-28a, E. coli BL21(DE3) or its luxS mutant, Ni-NTA
As to the kind of experiment: isothermal titration calorimetry. The experiment is classed as binding, Streptomyces coelicolor. Conditions: 25 °C, 50 mM Tris, 150 mM NaCl, 10% glycerol, pH 8.0; one-site model; no borate added; which of the two LsrB not given. An excerpt: isothermal titration calorimetry on LsrB receptor of S. coelicolor A3(2) (first of two, locus not printed) | the LsrB receptors bound AI-2 with high affinity

The term Kd denotes a measure of binding affinity in units of concentration. Higher therefore signals weaker binding.

Turning to `CC(=O)C(=O)[C@@H](O)CO` [DPD], the Kd came to 101 ± 10 nM in experiment [1] and 175 ± 30 nM in experiment [2].
